Measured values published in patent publication US12049439B2 (OrsoBio, Inc., priority 2018, dated 2024).

Tested on: PC-3 cells
Assay: PC-3 Oxygen Rate Consumption (OCR) Assay
Format: cell-based
Conditions: Homo sapiens, 0.05 h, medium with 2% FBS, OCR at 3-min post-injection normalized to % increase over DMSO-treated cells, concentration for half-maximal OCR increase, read-out: EC50-PC3-OCR-FBS-3min
Procedure, shortened: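 PC-3 cells seeded a day before, equilibrated 1 h in XF medium with 10 mM glucose, 1 mM pyruvate, 2% FBS, non-CO2 at 37 °C. Compound injected after basal OCR reads; OCR at 3 min post-injection normalized as % increase over DMSO, EC50 = half-maximal increase; six replicates.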

SMILES	EC50
O=C(NC12CC(C(F)(F)F)(C1)C2)c1ccc(OC(F)(F)F)cc1NS(=O)(=O)N1CCS(=O)(=O)CC1 [Example 245, 2-((1,1-dioxidothiomorpholine)-4-sulfonamido)-4-(trifluoromethoxy)-N-(3-(trifluoromethyl)bicyclo[1.1.1]pentan-1-yl)benzamide]	3.84 µM
N#CC12CCC(NC(=O)c3ccc(F)cc3NS(=O)(=O)CCC(F)(F)F)(CC1)C2 [Example 223, N-(4-cyanobicyclo[2.2.1]heptan-1-yl)-4-fluoro-2-((3,3,3-trifluoropropyl)sulfonamido)benzamide]	4.43 µM
CCCCS(=O)(=O)Nc1ccc(C(F)(F)F)cc1C(=O)NC12CCC(C#N)(CC1)CC2 [Example 127, 2-(butylsulfonamido)-N-(4-cyanobicyclo[2.2.2]octan-1-yl)-5-(trifluoromethyl)benzamide]	2.41 µM
N#CC12CC(NC(=O)c3ccc(C(F)(F)F)cc3NS(=O)(=O)c3ccccc3)(C1)C2 [Example 41, N-(3-cyanobicyclo[1.1.1]pentan-1-yl)-2-(phenylsulfonamido)-4-(trifluoromethyl)benzamide]	2.16 µM
CS(=O)(=O)c1ccc(S(=O)(=O)Nc2cc(C(F)(F)F)ccc2C(=O)NC23CC4CC(CC(C4)C2)C3)cc1 [Example 10, N-((3s,5s,7s)-adamantan-1-yl)-2-((4-(methylsulfonyl)phenyl)sulfonamido)-4-(trifluoromethyl)benzamide]	1.22 µM
CS(=O)(=O)Nc1ccc(C(F)(F)F)cc1C(=O)NC12CC(C(F)(F)F)(C1)C2 [Example 166, 2-(methylsulfonamido)-5-(trifluoromethyl)-N-(3-(trifluoromethyl)bicyclo[1.1.1]pentan-1-yl)benzamide]	1.07 µM
CS(=O)(=O)c1ccc(S(=O)(=O)Nc2cc(S(F)(F)(F)(F)F)ccc2C(=O)NC23CC(C(F)(F)F)(C2)C3)cc1 [Example 154, 2-((4-(methylsulfonyl)phenyl)sulfonamido)-4-(pentafluoro-λ^6-sulfanyl)-N-(3-(trifluoromethyl)bicyclo[1.1.1]pentan-1-yl)benzamide]	8.02 µM
CCS(=O)(=O)c1ccc(S(=O)(=O)Nc2cc(C(F)(F)F)ccc2C(=O)NC23CC(C2)C3)cc1 [Example 27, N-(bicyclo[1.1.1]pentan-1-yl)-2-((4-(ethylsulfonyl)phenyl)sulfonamido)-4-(trifluoromethyl)benzamide]	4.5 µM
N#CC12CC(NC(=O)c3ccc(C(F)(F)F)cc3NS(=O)(=O)c3ccc(OC(F)(F)F)cc3)(C1)C2 [Example 32, N-(3-cyanobicyclo[1.1.1]pentan-1-yl)-2-((4-(trifluoromethoxy)phenyl)sulfonamido)-4-(trifluoromethyl)benzamide]	1.52 µM
Cc1ncc(S(=O)(=O)Nc2cc(C(F)(F)F)ccc2C(=O)NC23CCC(C#N)(CC2)CC3)s1 [Example 76, N-(4-cyanobicyclo[2.2.2]octan-1-yl)-2-((2-methylthiazole)-5-sulfonamido)-4-(trifluoromethyl)benzamide]	9.19 µM
N#CC12CCC(NC(=O)c3cc(C(F)(F)F)ccc3NS(=O)(=O)N3CC(OC(F)(F)F)C3)(CC1)CC2 [Example 227, N-(4-cyanobicyclo[2.2.2]octan-1-yl)-2-((3-(trifluoromethoxy)azetidine)-1-sulfonamido)-5-(trifluoromethyl)benzamide]	1.45 µM
CS(=O)(=O)c1ccc(S(=O)(=O)Nc2cc(S(F)(F)(F)(F)F)ccc2C(=O)NC23CC(C2)C3)cc1 [Example 155, N-(bicyclo[1.1.1]pentan-1-yl)-2-((4-(methylsulfonyl)phenyl)sulfonamido)-4-(pentafluoro-λ^6-sulfanyl)benzamide]	5.87 µM
CS(=O)(=O)Nc1cc(S(F)(F)(F)(F)F)ccc1C(=O)NC12CCC(C#N)(CC1)CC2 [Example 117, N-(4-cyanobicyclo[2.2.2]octan-1-yl)-2-(methylsulfonamido)-4-(pentafluoro-λ^6-sulfanyl)benzamide]	4.02 µM
CS(=O)(=O)Nc1ccc(OC(F)(F)F)cc1C(=O)NC12CCC(C#N)(CC1)CC2 [Example 185, N-(4-cyanobicyclo[2.2.2]octan-1-yl)-2-(methylsulfonamido)-5-(trifluoromethoxy)benzamide]	32 µM
N#CC12CCC(NC(=O)c3cc(C(F)(F)F)ccc3NS(=O)(=O)C3COC3)(CC1)CC2 [Example 75, N-(4-cyanobicyclo[2.2.2]octan-1-yl)-2-(oxetane-3-sulfonamido)-5-(trifluoromethyl)benzamide]	25.9 µM
N#CC12CCC(NC(=O)c3ccc(F)cc3NS(=O)(=O)CCC(F)(F)F)(CC1)CC2 [Example 134, N-(4-cyanobicyclo[2.2.2]octan-1-yl)-4-fluoro-2-((3,3,3-trifluoropropyl)sulfonamido)benzamide]	2.68 µM
CS(=O)(=O)Nc1ccc(S(F)(F)(F)(F)F)cc1C(=O)NC12CCC(C#N)(CC1)CC2 [Example 167, N-(4-cyanobicyclo[2.2.2]octan-1-yl)-2-(methylsulfonamido)-5-(pentafluoro-λ^6-sulfanyl)benzamide]	5.88 µM
CS(=O)(=O)Nc1cc(F)c(F)cc1C(=O)NC12CCC(C#N)(CC1)CC2 [Example 215, N-(4-cyanobicyclo[2.2.2]octan-1-yl)-4,5-difluoro-2-(methylsulfonamido)benzamide]	21.4 µM
COC1CN(S(=O)(=O)Nc2ccc(C(F)(F)F)cc2C(=O)NC23CCC(C#N)(CC2)CC3)C1 [Example 182, N-(4-cyanobicyclo[2.2.2]octan-1-yl)-2-((3-methoxyazetidine)-1-sulfonamido)-5-(trifluoromethyl)benzamide]	13 µM
CS(=O)(=O)c1ccc(S(=O)(=O)Nc2ccc(C(F)(F)F)cc2C(=O)NC23CC(C(F)(F)F)(C2)C3)cc1 [Example 86, 2-((4-(methylsulfonyl)phenyl)sulfonamido)-5-(trifluoromethyl)-N-(3-(trifluoromethyl)bicyclo[1.1.1]pentan-1-yl)benzamide]	8.27 µM
CS(=O)(=O)Nc1cc(Br)ccc1C(=O)NC12CCC(C#N)(CC1)CC2 [Example 194, 4-bromo-N-(4-cyanobicyclo[2.2.2]octan-1-yl)-2-(methylsulfonamido)benzamide]	≥ 50 µM
N#Cc1ccc(NS(=O)(=O)N2CCCC2)c(C(=O)NC23CCC(C#N)(CC2)CC3)c1 [Example 131, 5-cyano-N-(4-cyanobicyclo[2.2.2]octan-1-yl)-2-(pyrrolidine-1-sulfonamido)benzamide]	19.5 µM
CS(=O)(=O)Nc1ccc(C(F)(F)F)cc1C(=O)NC12CC(C1)C2 [Example 212, N-(bicyclo[1.1.1]pentan-1-yl)-2-(methylsulfonamido)-5-(trifluoromethyl)benzamide]	8.62 µM
CC(C)S(=O)(=O)Nc1cc(C(F)(F)F)ccc1C(=O)NC12CC(C(F)(F)F)(C1)C2 [Example 56, 2-((1-methylethyl)sulfonamido)-4-(trifluoromethyl)-N-(3-(trifluoromethyl)bicyclo[1.1.1]pentan-1-yl)benzamide]	0.825 µM
O=C(NC12CC(C(F)(F)F)(C1)C2)c1ccccc1NS(=O)(=O)CC(F)(F)F [Example 143, 2-((2,2,2-trifluoroethyl)sulfonamido)-N-(3-(trifluoromethyl)bicyclo[1.1.1]pentan-1-yl)benzamide]	10.2 µM
